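Tested at 5 concentrations; 48 h exposure; 96-well plates; endpoints linearly interpolated, else capped at highest concentration. GI50 is the concentration that inhibits growth by half.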 Active and inactive are the calls of the source. Cut-off read from the data, not from the text of the source: active = GI50 up to about 1.1 µM and inactive = higher.
Tests used:
Experiment in all cases: DTP human tumour cell line panel, 48 h
[1] = tested on: 786-0
[2] = tested on: A498
[3] = tested on: A549
[4] = tested on: ACHN
[5] = tested on: BT-549
[6] = tested on: CAKI-1
[7] = tested on: CCRF-CEM
[8] = tested on: COLO 205
[9] = tested on: DU-145
[10] = tested on: EKVX
[11] = tested on: HCC 2998
[12] = tested on: HCT-116
[13] = tested on: HCT-15
[14] = tested on: HL-60
[15] = tested on: HOP-62
[16] = tested on: HOP-92
[17] = tested on: HT-29
[18] = tested on: Hs-578T
[19] = tested on: IGROV-1
[20] = tested on: K562
[21] = tested on: KM12
[22] = tested on: LOX IMVI
[23] = tested on: M14
[24] = tested on: MCF7
[25] = tested on: MDA-MB-231
[26] = tested on: MDA-MB-435
[27] = tested on: MDA-N
[28] = tested on: MOLT-4
[29] = tested on: Malme-3M
[30] = tested on: NCI-H226
[31] = tested on: NCI-H23
[32] = tested on: NCI-H460
[33] = tested on: NCI-H522
[34] = tested on: NCI/ADR-RES
[35] = tested on: OVCAR-3
[36] = tested on: OVCAR-4
[37] = tested on: OVCAR-5
[38] = tested on: OVCAR-8
[39] = tested on: PC-3
[40] = tested on: RPMI-8226
[41] = tested on: RXF 393
[42] = tested on: SF-268
[43] = tested on: SF-295
[44] = tested on: SF-539
[45] = tested on: SK-MEL-28
[46] = tested on: SK-MEL-2
[47] = tested on: SK-MEL-5
[48] = tested on: SK-OV-3
[49] = tested on: SN12C
[50] = tested on: SNB-19
[51] = tested on: SNB-75
[52] = tested on: SR
[53] = tested on: SW-620
[54] = tested on: T47D
[55] = tested on: TK-10
[56] = tested on: U-251
[57] = tested on: UACC-257
[58] = tested on: UACC-62
[59] = tested on: UO-31

Measured: GI50

Cc1ccccc1C(=O)N1CCc2c([nH]c3ccccc23)C1
inactive: [1] 22.9 µM | [2] 21.5 µM | [3] 35.9 µM | [4] 34.9 µM | [5] 18.7 µM | [6] 24.4 µM | [7] 24.8 µM | [8] 17.4 µM | [9] 25.6 µM | [10] 24.9 µM | [11] 18.5 µM | [12] 17.7 µM | [14] 17.5 µM | [15] 33.8 µM | [16] 15.1 µM | [17] 18.8 µM | [18] 29 µM | [19] 25.7 µM | [20] 21.4 µM | [21] 25.9 µM | [22] 21.9 µM | [23] 19.4 µM | [24] 21 µM | [25] 12.7 µM | [26] 14.4 µM | [27] 18.9 µM | [28] 27.4 µM | [29] 24.8 µM | [30] 21.8 µM | [31] 21.4 µM | [32] 21.7 µM | [33] 19.1 µM | [34] 22.6 µM | [35] 27.5 µM | [36] 22.6 µM | [37] 19.5 µM | [38] 27 µM | [39] 14 µM | [40] 21.2 µM | [41] 18.6 µM | [42] 35.6 µM | [43] 29.1 µM | [44] 21.5 µM | [45] 28.9 µM | [46] 12.8 µM | [47] 15.9 µM | [48] 32.4 µM | [49] 17.2 µM | [50] 41.7 µM | [51] 20.6 µM | [52] 13.7 µM | [53] 27.6 µM | [54] 21.9 µM | [55] 28.2 µM | [56] 18 µM | [57] 23.9 µM | [58] 16 µM | [59] 31.2 µM
21.3 µM: [13]

CCn1c2ccc(C(=O)CCCN(C)C)cc2c2cc(C(=O)CCCN(C)C)ccc21
1.27 µM: [13]
active: [1] 0.243 µM | [3] 0.867 µM | [4] 0.759 µM | [7] 0.395 µM | [8] 1.06 µM | [12] 0.593 µM | [15] 0.701 µM | [17] 0.509 µM | [19] 0.889 µM | [22] 1.12 µM | [24] 0.659 µM | [25] 0.851 µM | [28] 0.256 µM | [32] 0.421 µM | [38] 0.533 µM | [44] 0.805 µM | [49] 0.946 µM | [53] 0.53 µM
inactive: [2] 1.32 µM | [5] 3.38 µM | [6] 2.55 µM | [9] 2.52 µM | [10] 1.79 µM | [11] 1.69 µM | [14] 1.75 µM | [16] 3.03 µM | [18] 2.32 µM | [20] 2.05 µM | [21] 1.18 µM | [23] 1.95 µM | [26] 1.27 µM | [27] 2.05 µM | [29] 2.81 µM | [30] 2.74 µM | [31] 1.61 µM | [33] 3.04 µM | [34] 4.93 µM | [35] 1.27 µM | [36] 1.18 µM | [37] 1.79 µM | [39] 1.3 µM | [40] 1.77 µM | [41] 1.68 µM | [42] 1.75 µM | [43] 3.64 µM | [45] 5.66 µM | [46] 2.25 µM | [47] 4.69 µM | [48] 5.79 µM | [50] 1.6 µM | [51] 2.97 µM | [52] 1.13 µM | [54] 10.2 µM | [55] 1.98 µM | [56] 2.24 µM | [57] 3.44 µM | [58] 7.59 µM | [59] 3.48 µM

— ChEMBL document CHEMBL1201862, “PubChem BioAssay data set” (2004)
